Experiment [1] deals with T1, HA1 adenosine receptor (Homo sapiens, UniProt P30542).
T1 sequence (P30542 1-326): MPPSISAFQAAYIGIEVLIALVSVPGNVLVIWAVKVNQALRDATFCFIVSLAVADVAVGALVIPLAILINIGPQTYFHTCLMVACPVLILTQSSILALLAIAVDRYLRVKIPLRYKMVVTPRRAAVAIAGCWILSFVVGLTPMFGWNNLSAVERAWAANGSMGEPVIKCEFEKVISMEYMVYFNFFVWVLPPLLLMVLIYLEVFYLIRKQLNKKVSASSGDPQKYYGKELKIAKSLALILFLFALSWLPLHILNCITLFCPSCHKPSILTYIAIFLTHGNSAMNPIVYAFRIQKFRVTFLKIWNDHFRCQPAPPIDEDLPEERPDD
Nature of the experiment: Human adenosine A1 receptor affinity (Ki hA1). The format is binding. The settings on record: affinity to human adenosine A1 receptor.

Experiment [2] has as its target T2, human adenosine A2A receptor (Homo sapiens, UniProt P29274).
T2 construct: expressed in transfected cells; host or cells: CHO cells, Semliki Forest virus expression system; membrane preparation
Nature of the experiment: Human adenosine A2A receptor [3H]-SCH-58261 binding assay. The settings on record: for pKi: affinity to human adenosine A2A receptor, read-out: Ki HA2A; for selectivity (A1/A2a): calculated ratio of the affinity to the HA1 receptor to the HA2a receptor.

pKi: −log10 of the molar value.

T2 sequence (P29274 whole entry): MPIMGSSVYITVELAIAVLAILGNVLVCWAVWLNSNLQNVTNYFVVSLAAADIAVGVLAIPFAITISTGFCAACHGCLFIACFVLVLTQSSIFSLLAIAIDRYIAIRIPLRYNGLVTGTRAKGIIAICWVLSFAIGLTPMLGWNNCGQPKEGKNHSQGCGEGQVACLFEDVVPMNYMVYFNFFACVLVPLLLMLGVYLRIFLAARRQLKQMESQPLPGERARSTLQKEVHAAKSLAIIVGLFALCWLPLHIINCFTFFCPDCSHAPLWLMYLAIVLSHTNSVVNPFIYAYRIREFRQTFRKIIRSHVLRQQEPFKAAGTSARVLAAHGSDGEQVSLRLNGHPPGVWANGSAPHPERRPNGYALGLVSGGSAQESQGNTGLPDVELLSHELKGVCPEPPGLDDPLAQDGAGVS

For `CC(C)N(Cc1ccccc1)C(=O)c1cc(N)n2nc(-c3cccn3C)nc2c1` [Example 135, 5-Amino-2-(1-methyl-1H-pyrrol-2-yl)-[1,2,4]triazolo[1,5-a]pyridine-7-carboxylic acid benzyl-isopropyl-amide], in experiment [1], the negative-log Ki (pKi) was 5.74. In addition, in experiment [2], the negative-log Ki (pKi) is 6.78 and the “selectivity (A1/A2a)” value was 10.9.

In experiment [1], `CC(C)N(Cc1ccccc1)C(=O)c1cc(N)n2nc(-c3ccco3)nc2c1` [Example 136, 5-Amino-2-furan-2-yl-[1,2,4]triazolo[1,5-a]pyridine-7-carboxylic acid benzyl-isopropyl-amide] gave a pKi of 6.65. Besides, in experiment [2], the negative logarithm of the Ki (pKi) was 7.92 and the “selectivity (A1/A2a)” value is on record as 18.5.

`CCCCNC(=O)c1cc(N)n2nc(-c3ccc(C)o3)nc2c1` [Example 137, 5-Amino-2-(5-methyl-furan-2-yl)-[1,2,4]triazolo[1,5-a]pyridine-7-carboxylic acid butylamide] gave a pKi in experiment [1] of 6.66. For the same compound, in experiment [2], the pKi was 7.96 and the “selectivity (A1/A2a)” value is 19.8.

In experiment [1], `Cc1ccc(-c2nc3cc(C(=O)NC4CCCCC4)cc(N)n3n2)o1` [Example 138, 5-Amino-2-(5-methyl-furan-2-yl)-[1,2,4]triazolo[1,5-a]pyridine-7-carboxylic acid cyclohexylamide] gave a negative-log Ki (pKi) of 5.90. In experiment [2], the pKi is 6.91 and the “selectivity (A1/A2a)” value is on record as 10.3.

In experiment [1], `Cc1ccc(-c2nc3cc(C(=O)N4CCOCC4)cc(N)n3n2)o1` [Example 139, [5-Amino-2-(5-methyl-furan-2-yl)-[1,2,4]triazolo[1,5-a]pyridin-7-yl]-morpholin-4-yl-methanone] gave a pKi of 5.76. Moreover, in experiment [2], the pKi was 7.13 and the “selectivity (A1/A2a)” value is 23.5.

`Cc1ccc(-c2nc3cc(C(=O)N(C)Cc4ccccc4)cc(N)n3n2)o1` [Example 140, 5-Amino-2-(5-methyl-furan-2-yl)-[1,2,4]triazolo[1,5-a]pyridine-7-carboxylic acid benzyl-methyl-amide] showed a pKi in experiment [1] of 6.97. For the same compound, in experiment [2], the negative-log Ki (pKi) was 8.14 and the “selectivity (A1/A2a)” value is reported as 14.7.

The compound `Cc1ccc(-c2nc3cc(C(=O)N(Cc4ccccc4)C(C)C)cc(N)n3n2)o1` [Example 141, 5-Amino-2-(5-methyl-furan-2-yl)-[1,2,4]triazolo[1,5-a]pyridine-7-carboxylic acid benzyl-isopropyl-amide] had a pKi in experiment [1] of 6.91. Besides, in experiment [2], the pKi is 8.23 and the “selectivity (A1/A2a)” value is listed as 20.8.

For the compound `COc1ccc(CNC(=O)c2cc(N)n3nc(-c4ccc(C)o4)nc3c2)cc1OC` [Example 142, 5-Amino-2-(5-methyl-furan-2-yl)-[1,2,4]triazolo[1,5-a]pyridine-7-carboxylic acid 3,4-dimethoxy-benzylamide], in experiment [1], the pKi is 5.39. In experiment [2], the pKi was 6.55 and the “selectivity (A1/A2a)” value is given as 14.6.

Compound `CCN(C(=O)c1cc(N)n2nc(-c3sccc3C)nc2c1)C(C)C` [Example 143, 5-Amino-2-(3-methyl-thiophen-2-yl)-[1,2,4]triazolo[1,5-a]pyridine-7-carboxylic acid ethyl-isopropyl-amide] showed a negative-log Ki (pKi) in experiment [1] of 5.96. Moreover, in experiment [2], the pKi is 6.92 and the “selectivity (A1/A2a)” value is on record as 9.0.

In the case of `Cc1ccsc1-c1nc2cc(C(=O)N(Cc3ccccc3)C(C)C)cc(N)n2n1` [Example 144, 5-Amino-2-(3-methyl-thiophen-2-yl)-[1,2,4]triazolo[1,5-a]pyridine-7-carboxylic acid benzyl-isopropyl-amide], the pKi in experiment [1] is 6.09; in experiment [2], 7.20. Further, the “selectivity (A1/A2a)” value in experiment [2] is 12.9.

In experiment [1], `CCCCNC(=O)c1cc(N)n2nc(-c3ccccc3)nc2c1` [Example 145, 5-Amino-2-phenyl-[1,2,4]triazolo[1,5-a]pyridine-7-carboxylic acid butylamide] had a negative logarithm of the Ki (pKi) of 6.97. Also, in experiment [2], the pKi is 7.59 and the “selectivity (A1/A2a)” value is recorded as 4.1.

The values above are taken from patent US6506772B1, “Substituted [1,2,4]triazolo[1,5a]pyridine derivatives with activity as adenosine receptor ligands” (Hoffmann-La Roche Inc., priority 2000, dated 2003).
